Test results: ChEMBL document CHEMBL1687756 (Antimicrob Agents Chemother, 2010)

What was measured:
Canis familiaris = assay: Toxicity in Beagle dog assessed as untoward effects at 20 mg/kg, sc; format: organism-based, Canis lupus familiaris; design: dose 20 mg/kg, route subcutaneous; settings: in vivo
[1] = Drug level in female Beagle dog spleen at 400 mg/kg administered intramuscularly after 1 month; format: ADME, organism-based, Canis lupus familiaris; design: dose 400 mg/kg, route intramuscular; settings: im, read-out: Drug uptake
[2] = Ratio of drug level in spleen to plasma in male Beagle dog at 200 mg/kg, sc after 1 month; format: ADME, organism-based, Canis lupus familiaris; design: dose 200 mg/kg, route subcutaneous
[3] = Drug level in Beagle dog skin at injected site at 5 mg/kg, sc after 6 months; format: ADME, organism-based, Canis lupus familiaris, Zone of skin; design: dose 5 mg/kg, route subcutaneous; settings: read-out: Drug uptake
[4] = Drug level in male Beagle dog spleen at 200 mg/kg administered intramuscularly after 3 months; format: ADME, organism-based, Canis lupus familiaris; design: dose 200 mg/kg, route intramuscular; settings: im, read-out: Drug uptake
[5] = Ratio of drug level in thymus to plasma in male Beagle dog at 200 mg/kg, sc after 1 month; format: ADME, organism-based, Canis lupus familiaris; design: dose 200 mg/kg, route subcutaneous
[6] = Ratio of drug level in lymph node popliteal to plasma in Beagle dog at 5 mg/kg administered intramuscularly after 1 month; format: ADME, organism-based, Canis lupus familiaris; design: dose 5 mg/kg, route intramuscular; settings: im
[7] = Ratio of drug level in lymph node popliteal to plasma in Beagle dog at 5 mg/kg, sc after 3 months; format: ADME, organism-based, Canis lupus familiaris; design: dose 5 mg/kg, route subcutaneous
[8] = Drug level in Beagle dog lymph node iliac at 5 mg/kg, sc after 6 months; format: ADME, organism-based, Canis lupus familiaris; design: dose 5 mg/kg, route subcutaneous; settings: read-out: Drug uptake
[9] = Drug level in Beagle dog thymus at 5 mg/kg, sc after 6 months; format: ADME, organism-based, Canis lupus familiaris; design: dose 5 mg/kg, route subcutaneous; settings: read-out: Drug uptake
[10] = Drug level in female Beagle dog spleen at 200 mg/kg, sc after 1 month; format: ADME, organism-based, Canis lupus familiaris; design: dose 200 mg/kg, route subcutaneous; settings: read-out: Drug uptake
[11] = Drug level in Beagle dog lymph node mandibular at 5 mg/kg, sc after 3 months; format: ADME, organism-based, Canis lupus familiaris; design: dose 5 mg/kg, route subcutaneous; settings: read-out: Drug uptake
[12] = Drug level in Beagle dog lymph node popliteal at 5 mg/kg administered intramuscularly after 1 month; format: ADME, organism-based, Canis lupus familiaris; design: dose 5 mg/kg, route intramuscular; settings: im, read-out: Drug uptake
[13] = Drug level in Beagle dog spleen at 5 mg/kg administered intramuscularly after 3 months; format: ADME, organism-based, Canis lupus familiaris; design: dose 5 mg/kg, route intramuscular; settings: im, read-out: Drug uptake
[14] = Plasma concentration in Beagle dog at 5 mg/kg, sc after 6 months; format: ADME, organism-based, Canis lupus familiaris; design: dose 5 mg/kg, route subcutaneous
[15] = Drug level in Beagle dog lymph node popliteal at 5 mg/kg administered intramuscularly after 3 months; format: ADME, organism-based, Canis lupus familiaris; design: dose 5 mg/kg, route intramuscular; settings: im, read-out: Drug uptake
[16] = Drug level in Beagle dog liver at 5 mg/kg administered intramuscularly after 6 months; format: ADME, organism-based, Canis lupus familiaris; design: dose 5 mg/kg, route intramuscular; settings: im, read-out: Drug uptake
[17] = AUC (0 to last) in Beagle dog at 5 mg/kg administered intramuscularly after 184 days; format: ADME, organism-based, Canis lupus familiaris; design: dose 5 mg/kg, route intramuscular, time 0 - last; settings: plasma, im
[18] = Drug level in Beagle dog lymph node iliac at 5 mg/kg administered intramuscularly after 3 months; format: ADME, organism-based, Canis lupus familiaris; design: dose 5 mg/kg, route intramuscular; settings: im, read-out: Drug uptake
[19] = Plasma concentration in female Beagle dog at 200 mg/kg administered intramuscularly after 3 months; format: ADME, organism-based, Canis lupus familiaris; design: dose 200 mg/kg, route intramuscular; settings: im
[20] = Drug level in Beagle dog thymus at 5 mg/kg administered intramuscularly after 6 months; format: ADME, organism-based, Canis lupus familiaris; design: dose 5 mg/kg, route intramuscular; settings: im, read-out: Drug uptake
[21] = Drug level in female Beagle dog thymus at 400 mg/kg, sc after 1 month; format: ADME, organism-based, Canis lupus familiaris; design: dose 400 mg/kg, route subcutaneous; settings: read-out: Drug uptake
[22] = Drug level in male Beagle dog spleen at 200 mg/kg, sc after 1 month; format: ADME, organism-based, Canis lupus familiaris; design: dose 200 mg/kg, route subcutaneous; settings: read-out: Drug uptake
[23] = AUC (0 to last) in Beagle dog at 5 mg/kg, sc after 184 days; format: ADME, organism-based, Canis lupus familiaris; design: time 0 - last, dose 5 mg/kg, route subcutaneous; settings: plasma
[24] = Ratio of drug level in spleen to plasma in male Beagle dog at 200 mg/kg, sc after 3 months; format: ADME, organism-based, Canis lupus familiaris; design: dose 200 mg/kg, route subcutaneous
[25] = Tmax in Beagle dog at 5 mg/kg administered intramuscularly after 184 days; format: ADME, organism-based, Canis lupus familiaris; design: dose 5 mg/kg, route intramuscular; settings: in vivo, im
[26] = Ratio of drug level in lymph node iliac to plasma in Beagle dog at 5 mg/kg administered intramuscularly after 1 month; format: ADME, organism-based, Canis lupus familiaris; design: dose 5 mg/kg, route intramuscular; settings: im
[27] = Drug level in Beagle dog muscle at injected site at 5 mg/kg, sc after 3 months; format: ADME, organism-based, Canis lupus familiaris, Muscle tissue; design: dose 5 mg/kg, route subcutaneous; settings: read-out: Drug uptake
[28] = Plasma concentration in male Beagle dog at 200 mg/kg administered intramuscularly after 1 month; format: ADME, organism-based, Canis lupus familiaris; design: dose 200 mg/kg, route intramuscular; settings: im

concentration at 730.5 h [1]: 311 ng/g
Kp at 730.5 h [2]: 2
concentration at 4383 h [3]: 143000 ng/g
concentration at 2191.5 h [4]: 23.8 ng/g
Kp at 730.5 h [5]: 6
Kp at 730.5 h [6]: 574
Kp at 2191.5 h [7]: 8.2
concentration at 4383 h [8]: 9.9 ng/g
concentration at 4383 h [9]: 20.2 ng/g
concentration at 730.5 h [10]: 14.5 ng/g
concentration at 2191.5 h [11]: 13.1 ng/g
concentration at 730.5 h [12]: 6500 ng/g
concentration at 2191.5 h [13]: < 5 ng/g
concentration at 4383 h [14]: 1.3 ng/mL
concentration at 2191.5 h [15]: 13.7 ng/g
concentration at 4383 h [16]: 11.6 ng/g
AUC(0-t) at 4416 h [17]: 39400 ng·h/mL
concentration at 2191.5 h [18]: 15.3 ng/g
concentration at 2191.5 h [19]: 10.1 ng/mL
concentration at 4383 h [20]: 7.2 ng/g
concentration at 730.5 h [21]: 1200 ng/g
concentration at 730.5 h [22]: 189 ng/g
AUC(0-t) at 4416 h [23]: 24400 ng·h/mL
Kp at 2191.5 h [24]: 2.5
Tmax [25]: 24 h
Kp at 730.5 h [26]: 168
concentration at 2191.5 h [27]: 467 ng/g
concentration at 730.5 h [28]: 74.5 ng/mL
Structure (SMILES): Cc1cc(/C=C/C#N)cc(C)c1Nc1ccnc(Nc2ccc(C#N)cc2)n1 [RILPIVIRINE]
Activity (Canis familiaris): Non-toxic
